Assay type in all cases: in vivo
Test [1] deals with Sphaerotheca fuliginea. Briefly: Test of examining control effect on Sphaerotheca fuliginea (potted cucumber plants). Conditions: Podosphaera fuliginea, 336 h; 10% wettable powder adjusted to 125 ppm, 15 ml/pot sprayed on potted cucumber plants one day before spray inoculation; assessed after 14 days in greenhouse; read-out: Determination of control effect (preventive value) on Sphaerotheca fuliginea. The protocol: (§1) Calculation of Preventive Value: Preventive value={(untreated lesion area rate−treated lesion area rate)/untreated lesion area rate}×100
(§2) Using the thus calculated preventive value, the control effect of each compound was determined in accordance with the following standards.
(§3) High control effect: 100%≧preventive value≧60%
(§4) Low control effect: 60%>preventive value≧0%
Using a spray gun, an agent solution prepared by adjusting a 10% wettable powder of each sample compound to 125 ppm (hereinafter referred to as a “sample agent solution”) was sprayed to potted cucumber plants (variety: Sagamihanjiro, 2nd leave stage) in a concentration of 15 ml/pot. One day after the spraying, a conidial suspension of Sphaerotheca fuliginea (conidial concentration: 1.0×10^5 cells/ml) was applied to the plants by spray inoculation. The plants were left in a greenhouse for 14 days, so that they were fully infected with the aforementioned disease. Thereafter, the disease level on each leaf was compared with that on an untreated leaf, and the control effect of each compound was determined in the same manner as in Example 3(1).

Test [2] has as its system Phytophthora infestans. As to the kind of experiment: whole plant or invertebrate. The conditions noted are these: in Solanum lycopersicum, 96 h, read-out: Determination of control effect (preventive value).
The test system of test [3] is Pseudoperonospora cubensis. Briefly: Test of examining control effect on Pseudoperonospora cubensis (potted cucumber plants). Conditions: 96 h, 10% wettable powder adjusted to 125 ppm, 15 ml/pot sprayed on potted cucumber plants one day before spray inoculation, assessed after 1 day wet chamber and 3 days greenhouse, read-out: Determination of control effect (preventive value) on Pseudoperonospora cubensis. The protocol:
as §1, §2, §3, §4
Using a spray gun, an agent solution prepared by adjusting a 10% wettable powder of each sample compound to 125 ppm (hereinafter referred to as a “sample agent solution”) was sprayed to potted cucumber plants (variety: Sagamihanjiro, 2.5 leave stage) in a concentration of 15 ml/pot. One day after the spraying, a conidial suspension of Pseudoperonospora cubensis (conidial concentration: 1.0×10^4 cells/ml) was applied to the plants by spray inoculation. After completion of the inoculation, the plants were left at 21° C. under wet chamber conditions for 1 day, and were then left in a greenhouse for 3 days, so that they were fully infected with the aforementioned disease. Thereafter, the disease level on each leaf was compared with that on an untreated leaf, and the control effect of each compound was determined in the same manner as in Example 3(1).

Regarding `COCc1ccccc1C#CCCNc1ncnc2ccc(C)cc12` [compound 326], the pest or weed control at 125 µg/mL in test [1] and in test [3] was 60 to 100% throughout. Also, the pest or weed control at 125 ppm in test [2] was 0 to 60%.

On to `C(#Cc1csc(-c2cccs2)n1)CCNc1ncnc2sccc12` [compound 79], for which the pest or weed control at 125 µg/mL in test [1] and in test [3] was 60 to 100% throughout. In addition, the pest or weed control at 125 ppm in test [2] is 0 to 60%.

On to `CSc1ncnc(NCCC#Cc2ccccc2C(F)(F)F)c1[N+](=O)[O-]` [compound 371], for which the pest or weed control at 125 µg/mL in test [1] and in test [3] was 0 to 60% each time. The pest or weed control at 125 ppm in test [2] was in the range of 0 to 60%.

For the compound `CC(CC#Cc1ccccc1C(F)(F)F)Nc1ncnc2ccccc12` (centres unmarked) [compound 274], the pest or weed control at 125 µg/mL in test [1] and in test [3] was 60 to 100% each time. The pest or weed control at 125 ppm in test [2] is 60 to 100%.

On to `COCc1ccccc1C#CCCNc1ncnc2sccc12` [compound 45], for which the pest or weed control at 125 ppm in test [2] lay within 60 to 100%. Moreover, the pest or weed control at 125 µg/mL in test [3] lay within 60 to 100%.

Turning to `CC(CC#Cc1ccc(Cl)cc1C(F)(F)F)Nc1ncnc(C(C)Cl)c1Cl` (centres unmarked) [compound 383], the pest or weed control at 125 µg/mL in test [1] and in test [3] was 60 to 100% each time. The pest or weed control at 125 ppm in test [2] was in the range of 0 to 60%.

For the compound `CC(CC#Cc1nccs1)Nc1ncnc2sccc12` (centres unmarked) [compound 265], the pest or weed control at 125 µg/mL in test [1] and in test [3] was 60 to 100% each time. Further, the pest or weed control at 125 ppm in test [2] lay in the range of 60 to 100%.

For the compound `C=CC(CC#Cc1ccccc1)Nc1ncnc2ccccc12` (centres unmarked) [compound 296], the pest or weed control at 125 µg/mL in test [1] and in test [3] was 60 to 100% each time. Moreover, the pest or weed control at 125 ppm in test [2] was in the range of 60 to 100%.

`CC(CC#Cc1ccc(F)cc1CO)Nc1ncnc2sccc12` (centres unmarked) [compound 244]: the pest or weed control at 125 µg/mL in test [1] and in test [3] was 60 to 100% throughout. In addition, the pest or weed control at 125 ppm in test [2] was in the range of 60 to 100%.

Take `CC(CC#Cc1ccc(F)cc1)Nc1ncnc2sccc12` (centres unmarked) [compound 230]: the pest or weed control at 125 µg/mL in test [1] and in test [3] was 60 to 100% throughout. Moreover, in test [2], the pest or weed control at 125 ppm was in the range of 60 to 100%.

On to `COCc1cc(C)ccc1C#CCCNc1ncnc2ccccc12` [compound 145], for which the pest or weed control at 125 µg/mL in test [1] and in test [3] was 60 to 100% throughout. The pest or weed control at 125 ppm in test [2] was in the range of 60 to 100%.

With `COCc1ccccc1C#CCCNc1ncnc2cc(C(F)(F)F)ccc12` [compound 324], the pest or weed control at 125 µg/mL in test [1] lay in the range of 0 to 60%; in test [3], 60 to 100%. For the same compound, the pest or weed control at 125 ppm in test [2] lay within 0 to 60%.

Turning to `COCc1ccccc1C#CCCNc1ncnc2cc(F)ccc12` [compound 316], the pest or weed control at 125 µg/mL in test [1] and in test [3] was 60 to 100% each time. For the same compound, the pest or weed control at 125 ppm in test [2] lay in the range of 60 to 100%.

With `Cn1cc(C#CCCNc2ncnc3ccccc23)ccc1=O` [compound 203], the pest or weed control at 125 µg/mL in test [1] lay in the range of 0 to 60%; in test [3], 60 to 100%. In addition, the pest or weed control at 125 ppm in test [2] was 0 to 60%.

`COCc1ccccc1C#CCCNc1ncnc2ccc(-c3cccnc3)cc12` [compound 337]: the pest or weed control at 125 µg/mL in test [1] is 0 to 60%; in test [3], 60 to 100%. Moreover, the pest or weed control at 125 ppm in test [2] lay in the range of 0 to 60%.

As to `N#Cc1cccc(C#CCCNc2ncnc3sccc23)c1` [compound 36], the pest or weed control at 125 ppm in test [2] fell in the range of 60 to 100%. In addition, in test [3], the pest or weed control at 125 µg/mL lay in the range of 60 to 100%.

`C#CCOCc1nc(C#CCCNc2ncnc3sccc23)cs1` [compound 74]: the pest or weed control at 125 µg/mL in test [1] and in test [3] was 60 to 100% in each case. Besides, the pest or weed control at 125 ppm in test [2] lay in the range of 60 to 100%.

Turning to `C(#Cc1ccccc1-c1ccccc1)CCNc1ncnc2ccccc12` [compound 114], the pest or weed control at 125 µg/mL in test [1] and in test [3] was 60 to 100% throughout. The pest or weed control at 125 ppm in test [2] is 0 to 60%.

Take `CC(CC#Cc1cccc(C(F)(F)F)c1)Nc1ncnc2sccc12` (centres unmarked) [compound 234]: the pest or weed control at 125 µg/mL in test [1] and in test [3] was 60 to 100% in each case. The pest or weed control at 125 ppm in test [2] is 0 to 60%.

As for `COCc1cc(C)ccc1C#CCCNc1ncnc(C)c1Cl` [compound 361], the pest or weed control at 125 µg/mL in test [1] and in test [3] was 60 to 100% each time. In addition, the pest or weed control at 125 ppm in test [2] lay within 60 to 100%.

Turning to `CC(CC#Cc1ccccc1C(F)(F)F)Nc1ncnc2c(F)cccc12` (centres unmarked) [compound 343], the pest or weed control at 125 µg/mL in test [1] and in test [3] was 60 to 100% throughout. In addition, the pest or weed control at 125 ppm in test [2] was 60 to 100%.

With `Clc1ccccc1C#CCCNc1ncnc2ccccc12` [compound 97], the pest or weed control at 125 µg/mL in test [1] and in test [3] was 60 to 100% in each case. Moreover, the pest or weed control at 125 ppm in test [2] lay in the range of 60 to 100%.

For `CSCc1ccccc1C#CCCNc1ncnc2ccccc12` [compound 152], the pest or weed control at 125 µg/mL fell in the range of 0 to 60% in test [1] and 60 to 100% in test [3]. For the same compound, the pest or weed control at 125 ppm in test [2] fell in the range of 0 to 60%.

As for `FCc1ccccc1C#CCCNc1ncnc2sccc12` [compound 47], in test [2], the pest or weed control at 125 ppm is 60 to 100%. In addition, the pest or weed control at 125 µg/mL in test [3] lay in the range of 60 to 100%.

On to `C(#Cc1ccoc1)CCNc1ncnc2sccc12` [compound 52], for which the pest or weed control at 125 ppm in test [2] lay within 0 to 60%. Further, the pest or weed control at 125 µg/mL in test [3] lay in the range of 60 to 100%.

With `FC(F)(F)Oc1ccc(C#CCCNc2ncnc3sccc23)cc1` [compound 34], the pest or weed control at 125 ppm in test [2] was in the range of 60 to 100%. Also, the pest or weed control at 125 µg/mL in test [3] fell in the range of 60 to 100%.

As for `COCc1ccccc1C#CCCNc1ncnc2ccsc12` [compound 49], the pest or weed control at 125 ppm in test [2] lay in the range of 60 to 100%. Besides, the pest or weed control at 125 µg/mL in test [3] was 60 to 100%.

Consider `FC(F)(F)Oc1ccccc1C#CCCNc1ncnc2sccc12` [compound 32], for which the pest or weed control at 125 ppm in test [2] fell in the range of 60 to 100%. Also, in test [3], the pest or weed control at 125 µg/mL lay within 60 to 100%.

Turning to `CC(CC#Cc1c(Cl)cc(F)cc1Cl)Nc1ncnc2sccc12` (centres unmarked) [compound 261], the pest or weed control at 125 µg/mL in test [1] and in test [3] was 60 to 100% each time.

`COCc1ccccc1C#CCCNc1ncnc2c(C)csc12` [compound 50]: the pest or weed control at 125 ppm in test [2] lay in the range of 60 to 100%. Besides, in test [3], the pest or weed control at 125 µg/mL is 60 to 100%.

For `OCc1ccccc1C#CCCNc1ncnc2sccc12` [compound 44], in test [2], the pest or weed control at 125 ppm is 60 to 100%. For the same compound, the pest or weed control at 125 µg/mL in test [3] fell in the range of 60 to 100%.

Turning to `C(#Cc1ccccn1)CCNc1ncnc2sccc12` [compound 55], the pest or weed control at 125 ppm in test [2] lay in the range of 60 to 100%. In addition, the pest or weed control at 125 µg/mL in test [3] was 60 to 100%.

`Cc1ccc(C#CCC(C)Nc2ncnc3sccc23)c(Cl)c1` (centres unmarked) [compound 255]: the pest or weed control at 125 µg/mL in test [1] lay within 60 to 100%. In addition, in test [2], the pest or weed control at 125 ppm lay within 60 to 100%.

Turning to `N#Cc1ccc(C#CCCNc2ncnc3sccc23)cc1` [compound 37], the pest or weed control at 125 ppm in test [2] is 60 to 100%. For the same compound, in test [3], the pest or weed control at 125 µg/mL lay within 60 to 100%.

With `CCOCc1ccccc1C#CCCNc1ncnc2sccc12` [compound 46], the pest or weed control at 125 ppm in test [2] was 60 to 100%. For the same compound, the pest or weed control at 125 µg/mL in test [3] was 60 to 100%.

Take `FC(F)(F)Oc1cccc(C#CCCNc2ncnc3sccc23)c1` [compound 33]: the pest or weed control at 125 ppm in test [2] lay within 60 to 100%. Besides, the pest or weed control at 125 µg/mL in test [3] lay in the range of 60 to 100%.

For `COCc1ccccc1C#CCCNc1ncnc2scc(C)c12` [compound 51], the pest or weed control at 125 ppm in test [2] was in the range of 60 to 100%. The pest or weed control at 125 µg/mL in test [3] fell in the range of 60 to 100%.

As for `Cc1cc(C)c(C#CCC(C)Nc2ncnc3sccc23)c(C)c1` (centres unmarked) [compound 263], the pest or weed control at 125 µg/mL in test [1] and in test [3] was 60 to 100% in each case.

Regarding `C(#Cc1ccsc1)CCNc1ncnc2sccc12` [compound 54], the pest or weed control at 125 ppm in test [2] lay in the range of 0 to 60%. For the same compound, the pest or weed control at 125 µg/mL in test [3] fell in the range of 60 to 100%.

Take `O=Cc1ccccc1C#CCCNc1ncnc2sccc12` [compound 48]: the pest or weed control at 125 ppm in test [2] lay in the range of 60 to 100%. In test [3], the pest or weed control at 125 µg/mL was 60 to 100%.

Take `CC(=O)Nc1ccccc1C#CCCNc1ncnc2ccccc12` [compound 160]: the pest or weed control at 125 ppm in test [2] is 0 to 60%. For the same compound, the pest or weed control at 125 µg/mL in test [3] lay in the range of 0 to 60%.

`N#Cc1ccccc1C#CCCNc1ncnc2sccc12` [compound 35]: the pest or weed control at 125 ppm in test [2] lay in the range of 60 to 100%. For the same compound, the pest or weed control at 125 µg/mL in test [3] fell in the range of 60 to 100%.

Regarding `C(#Cc1cccs1)CCNc1ncnc2sccc12` [compound 53], the pest or weed control at 125 ppm in test [2] was in the range of 0 to 60%. Further, the pest or weed control at 125 µg/mL in test [3] is 60 to 100%.

For the origin of these results see patent US8586505B2 (SDS Biotech K. K., priority 2009, dated 2013).
